Data from patent US20100240594A1, “TARGETED DELIVERY OF CHEMOTHERAPEUTIC AGENTS” (Burnham Institute for Medical Research, priority 2009, published 2010).

Tested on: pre-established subcutaneous PC3 tumors
Assay: Tumor growth in PC3 tumor-bearing mice treated i.v. twice a week
Format: in vivo, SCID-beige mice
Conditions: i.v. twice weekly from day 19 for ~3 weeks; taxol 5 mg/Kg, doxorubicin 2 mg/Kg, YSA conjugates at 1 and 5 fold molar equivalents of the parent drug dose
Description: Tumor sizes were measured and averages +/−SE are shown. The data in (A) and (B) are from the same experiment and share the same control.

Row | Compound | tumor growth inhibition compared with vehicle control
1 | COc1cccc2c1C(=O)c1c(O)c3c(c(O)c1C2=O)C[C@@](O)(C(=O)CO)C[C@@H]3O[C@H]1C[C@H](N)[C@H](O)[C@H](C)O1 [doxorubicin] | not significantly different from vehicle control
2 | CC(=O)O[C@H]1C(=O)[C@@]2(C)[C@H]([C@H](OC(=O)c3ccccc3)[C@]3(O)C[C@H](OC(=O)[C@H](O)[C@@H](NC(=O)c4ccccc4)c4ccccc4)C(C)=C1C3(C)C)[C@]1(OC(C)=O)CO[C@@H]1C[C@@H]2O [taxol] | not significantly different from vehicle control
